Measurements: publication PMC7440666, “Cryo-EM structure of the human concentrative nucleoside transporter CNT3” (PLoS Biology, 2020)
Numbering of substitutions follows the chain as printed.

T1: hCNT3 (full-length wild-type) (Homo sapiens, UniProt Q9HAS3)
T1 construct: gene SLC28A3; full-length, C-terminal Strep-tag, codon-optimized cDNA, baculovirus/Sf9 expression, purified in DDM, homotrimer
T1 sequence (Q9HAS3 1-691): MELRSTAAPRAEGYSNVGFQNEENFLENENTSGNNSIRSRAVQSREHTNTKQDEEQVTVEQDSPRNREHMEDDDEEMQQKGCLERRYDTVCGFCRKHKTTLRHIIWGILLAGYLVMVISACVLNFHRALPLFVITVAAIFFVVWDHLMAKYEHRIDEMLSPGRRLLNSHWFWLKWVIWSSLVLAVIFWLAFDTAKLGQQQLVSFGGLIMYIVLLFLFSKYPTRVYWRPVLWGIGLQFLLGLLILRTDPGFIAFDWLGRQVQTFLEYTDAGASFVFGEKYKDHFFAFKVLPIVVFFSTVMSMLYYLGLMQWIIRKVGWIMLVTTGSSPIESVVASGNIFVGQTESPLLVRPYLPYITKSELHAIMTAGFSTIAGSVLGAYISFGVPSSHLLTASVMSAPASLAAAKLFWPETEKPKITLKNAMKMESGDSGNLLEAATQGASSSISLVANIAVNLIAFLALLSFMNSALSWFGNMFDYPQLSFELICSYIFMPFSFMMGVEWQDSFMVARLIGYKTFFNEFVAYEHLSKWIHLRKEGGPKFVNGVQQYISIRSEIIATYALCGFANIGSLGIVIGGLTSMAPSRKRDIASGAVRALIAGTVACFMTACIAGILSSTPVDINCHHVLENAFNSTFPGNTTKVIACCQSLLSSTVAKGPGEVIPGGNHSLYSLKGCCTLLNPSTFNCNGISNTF

T2: CNT3ins (Δ1–69) (Homo sapiens, UniProt Q9HAS3)
T2 construct: gene SLC28A3; lacks the 69 N-terminal residues, C-terminal Strep-tag, baculovirus/Sf9 expression, purified in DDM for ITC, homotrimer
T2 sequence (Q9HAS3 70-691): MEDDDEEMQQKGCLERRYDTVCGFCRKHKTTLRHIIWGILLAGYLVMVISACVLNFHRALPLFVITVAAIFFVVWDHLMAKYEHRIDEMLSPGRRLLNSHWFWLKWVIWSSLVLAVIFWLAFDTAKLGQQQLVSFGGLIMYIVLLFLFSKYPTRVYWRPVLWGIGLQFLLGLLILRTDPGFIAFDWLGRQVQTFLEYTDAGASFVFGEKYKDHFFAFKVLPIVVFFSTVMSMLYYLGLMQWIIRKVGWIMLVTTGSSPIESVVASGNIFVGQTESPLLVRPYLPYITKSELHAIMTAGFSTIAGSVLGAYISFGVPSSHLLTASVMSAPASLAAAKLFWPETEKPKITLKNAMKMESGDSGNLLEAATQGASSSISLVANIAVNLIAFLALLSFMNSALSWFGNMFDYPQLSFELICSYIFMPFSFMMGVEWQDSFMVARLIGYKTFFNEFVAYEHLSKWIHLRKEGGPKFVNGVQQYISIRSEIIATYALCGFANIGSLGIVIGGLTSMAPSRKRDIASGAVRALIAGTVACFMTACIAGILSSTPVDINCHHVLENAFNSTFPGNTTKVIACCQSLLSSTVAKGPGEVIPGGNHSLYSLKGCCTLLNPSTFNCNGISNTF

T3: hCNT3 (full-length wild-type) (Homo sapiens, UniProt Q9HAS3, N565A)
T3 construct: gene SLC28A3; full-length, C-terminal Strep-tag, codon-optimized cDNA, baculovirus/Sf9 expression, purified in DDM, homotrimer
T3 sequence (Q9HAS3 1-691 N565A): T1 sequence (Q9HAS3 1-691) with N565A

T4: hCNT3 (full-length wild-type) (Homo sapiens, UniProt Q9HAS3, E343A)
T4 construct: gene SLC28A3; full-length, C-terminal Strep-tag, codon-optimized cDNA, baculovirus/Sf9 expression, purified in DDM, homotrimer
T4 sequence (Q9HAS3 1-691 E343A): T1 sequence (Q9HAS3 1-691) with E343A

B1: CNT3ins, the truncated isoform (Δ1–69) of human concentrative nucleoside transporter 3 (hCNT3) (domain or fragment, UniProt Q9HAS3 70-691, looked up)
chain: T2 sequence (Q9HAS3 70-691)
notes: human concentrative nucleoside transporter 3 (hCNT3, SLC28A3), truncated isoform lacking the 69 N-terminal residues (Δ1–69); codon-optimised cDNA; density resolved for residues 100–614; also called CNT3ins (Δ1–69); SLC28A3; source: Sf9 insect cells (baculovirus, pFastBac1), purified (StrepTactin Sepharose, Superose 6 SEC) in digitonin or DDM

Assays:
[1] = biological target: T1, hCNT3 (full-length wild-type); assay: isothermal titration calorimetry, one-site model; conditions: read-out: binding affinity
[2] = biological target: T2, CNT3ins (Δ1–69); assay: isothermal titration calorimetry, one-site model; conditions: read-out: binding affinity
[3] = biological target: T3, hCNT3 (full-length wild-type); assay: isothermal titration calorimetry, one-site model; assay type: binding
[4] = biological target: T4, hCNT3 (full-length wild-type); assay: isothermal titration calorimetry, one-site model; conditions: read-out: binding affinity
[5] = biological target: the molecule itself; assay: cryo-EM structure; purified CNT3ins (Δ1–69) at 6 mg/ml in 25 mM Tris pH 8.0, 150 mM NaCl, 0.1% digitonin; nucleoside-free; reconstruction with C3 symmetry

| Molecule | Kd [1] [µM] | Kd [2] [µM] | Kd [3] [µM] | Kd [4] [µM] | stoichiometry N [5] |
| --- | --- | --- | --- | --- | --- |
| Nc1ccn([C@@H]2O[C@H](CO)[C@@H](O)[C@H]2O)c(=O)n1 [cytidine] | ~260 | – | – | – | – |
| Cc1cn([C@H]2C[C@H](O)[C@@H](CO)O2)c(=O)[nH]c1=O [thymidine] | ~603 | – | – | – | – |
| O=c1ccn([C@@H]2O[C@H](CO)[C@@H](O)[C@H]2O)c(=O)[nH]1 [uridine] | ~325 | ~368 | ~280 | ~1190 | – |
| B1 | – | – | – | – | 3 |
